From ChEMBL document CHEMBL1152667, “Synthesis and radiopharmacological investigation of 3-[4'-[(18)F]fluorobenzylidene]indolin-2-one as possible tyrosine kinase inhibitor” (Bioorg Med Chem, 2009)

Columns and labels:
Format in all cases: ADME, organism-based
[1] = Metabolic stability in Wistar rat blood assessed as compound remaining at 30 MBq, iv after 1 min by radio-HPLC analysis; conditions: read-out: Stability
[2] = tested on: Blood; assay: Biodistribution in Wistar rat blood assessed as standard uptake value at 1.7 MBq, iv administered as single dose measured after 1 min post-injection by gamma counting; conditions: in vivo
[3] = tested on: Femur; assay: Biodistribution in Wistar rat femur assessed as standard uptake value at 1.7 MBq, iv administered as single dose measured after 60 mins post-injection by gamma counting; conditions: in vivo, 1 h
[4] = Biodistribution in Wistar rat brown adipose tissue assessed as standard uptake value at 1.7 MBq, iv administered as single dose measured after 60 mins post-injection by gamma counting; conditions: in vivo, 1 h
[5] = Biodistribution in Wistar rat urine at 1.7 MBq, iv administered as single dose measured after 60 mins post-injection by gamma counting; conditions: in vivo, 1 h
[6] = tested on: Adrenal gland; assay: Biodistribution in Wistar rat adrenal gland at 1.7 MBq, iv administered as single dose measured after 5 mins post-injection by gamma counting; conditions: in vivo
[7] = tested on: Lung; assay: Biodistribution in Wistar rat lung at 1.7 MBq, iv administered as single dose measured after 1 min post-injection by gamma counting; conditions: in vivo
[8] = Biodistribution in Wistar rat adipose tissue assessed as standard uptake value at 1.7 MBq, iv administered as single dose measured after 60 mins post-injection by gamma counting; conditions: in vivo, 1 h
[9] = tested on: Brain; assay: Biodistribution in Wistar rat brain at 1.7 MBq, iv administered as single dose measured after 1 min post-injection by gamma counting; conditions: in vivo
[10] = Ratio of drug level in pancreas to blood in Wistar rat at 1.7 MBq, iv administered as single dose measured after 5 mins post-injection
[11] = tested on: Muscle tissue; assay: Biodistribution in Wistar rat muscle assessed as standard uptake value at 1.7 MBq, iv administered as single dose measured after 30 mins post-injection by gamma counting; conditions: in vivo, 0.5 h
[12] = tested on: Kidney; assay: Biodistribution in Wistar rat kidney at 1.7 MBq, iv administered as single dose measured after 60 mins post-injection by gamma counting; conditions: in vivo, 1 h
[13] = tested on: Brain; assay: Biodistribution in Wistar rat brain at 1.7 MBq, iv administered as single dose measured after 10 mins post-injection by gamma counting; conditions: in vivo
[14] = tested on: Heart; assay: Biodistribution in Wistar rat heart assessed as standard uptake value at 1.7 MBq, iv administered as single dose measured after 1 min post-injection by gamma counting; conditions: in vivo
[15] = tested on: Intestine; assay: Biodistribution in Wistar rat intestine at 1.7 MBq, iv administered as single dose measured after 5 mins post-injection by gamma counting; conditions: in vivo
[16] = tested on: Thymus; assay: Biodistribution in Wistar rat thymus at 1.7 MBq, iv administered as single dose measured after 60 mins post-injection by gamma counting; conditions: in vivo, 1 h
[17] = Biodistribution in Wistar rat hair/skin assessed as standard uptake value at 1.7 MBq, iv administered as single dose measured after 30 mins post-injection by gamma counting; conditions: in vivo, 0.5 h
[18] = tested on: Liver; assay: Biodistribution in Wistar rat liver assessed as standard uptake value at 1.7 MBq, iv administered as single dose measured after 60 mins post-injection by gamma counting; conditions: in vivo, 1 h
[19] = tested on: Heart; assay: Biodistribution in Wistar rat heart at 1.7 MBq, iv administered as single dose measured after 10 mins post-injection by gamma counting; conditions: in vivo
[20] = tested on: Lung; assay: Biodistribution in Wistar rat lung at 1.7 MBq, iv administered as single dose measured after 60 mins post-injection by gamma counting; conditions: in vivo, 1 h

In the case of O=C1Nc2ccccc2/C1=C/c1ccc([18F])cc1, the remaining at 1 min [1] is reported as 70%, the SUV [2] is reported as 0.83% and the SUV [3] is reported as 0.19%. The SUV [4] was 0.63%, the Drug uptake [5] was 43.53 %ID and the Drug uptake [6] was 0.17 %ID. The Drug uptake [7] was 2.68 %ID, the SUV [8] was 1.15% and the Drug uptake [9] was 3.09 %ID. For the same molecule, the Kp at 5 min [10] was 3, the SUV [11] was 0.45% and the Drug uptake [12] was 0.91 %ID. The Drug uptake [13] was 1.09 %ID, the SUV [14] was 2.52% and the Drug uptake [15] was 13.96 %ID. For the same molecule, the Drug uptake [16] was 0.05 %ID, the SUV [17] was 0.48% and the SUV [18] was 1.3%. The Drug uptake [19] was 0.35 %ID and the Drug uptake [20] was 0.19 %ID.
